# Measurements as given in US20050221328A1, “Inhibitors of inflammatory gene activity and cholesterol biosynthesis” (Wyeth, priority 2002, published 2005).
# Assays:
# ICAM-1 = experiment: Hepatic mRNA levels after single oral dose of GW 4064 in C57BL/6 mice; assay type: in vivo, mouse; conditions: single oral dose 50 mg/kg, hepatic mRNA (FIG. 25)
# human ICAM-1 promoter = experiment: ICAM-1 promoter luciferase reporter in HepG2 cells transfected with human FXR and RXRα; assay type: cell-based; conditions: HepG2 transfections, GW 4064 1 uM, 24 or 48 hr; required proximal NF-κB response element
# Description: Referring to FIG. 26, HepG2 cells were transfected with the human FXR and RXRα expression plasmid and luciferase reporter plasmids containing the proximal promoter region of the human SHP (−360 to +40) or sequential deletions of the human ICAM-1 promoter (−1108 or −810 to +18). […] Data represent the mean+S.D. of three independent transfections.
# HepG2 cells = experiment: Gene expression in HepG2 cells treated 24 hr with CDCA or GW 4064; assay type: cell-based, human
# Procedure: HepG2 cells were maintained in growth media at 37° C. in a 5% CO2 incubator. The cells were seeded in deficient growth media (phenol red free DMEM (Gibco BRL) supplemented with heat-inactivated 10% FBS, 1% Glutamax, 1% MEM non-essential amino acids, 100 U/ml penicillin and 100 μg/ml streptomycin) at 4-5×10^5 cells per well in a 6 well dish (Falcon). The cells were then placed into serum deficient media for 24 hr before addition of the compounds for an additional 24 hrs. The cells were then harvested for RNA analysis.
# To further investigate the possibility that bile acid signaling through FXR can promote inflammatory gene expression, experiments were conducted in the hepatocyte cell line, HepG2. […] HepG2 cells express a number of inflammatory genes including ICAM-1 and M-CSF constitutively (Stonans et al '99 Cytokine 11:151). […] As positive controls, the induction of SHP mRNA and the repression of cyp7a were confirmed.
# Referring to FIG. 24a-b, HepG2 cells were treated for 24 hr with increasing concentrations of chenodeoxycholic acid (CDCA). […] Data are reported as mean±SEM for each group. C57BL/6 mice. […] Data are reported as mean±SEM for each group.
# mouse liver = conditions: GeneChip, 1 h after 20 ug/kg IL-1β ip, pretreated 5 days with vehicle or 100 ug/kg/day EE sc, vehicle+PBS=1.0;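 note: ovariectomized C57BL/6 mice, liver polyA RNA profiled, values are fold expression relative to vehicle plus PBS, averaged over two independent experiments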
# Procedure: Experiments were conducted to evaluate IL-1β regulation of gene expression in the mouse liver. Ovariectomized C57BL/6 mice were pretreated by subcutaneous administration of either corn oil/ethanol vehicle or 100 ug/kg/day ethynylestradiol (EE) for 5 days. On the fifth day, the mice received an intraperitoneal injection of either PBS or 20 ug/kg IL-1β in PBS. One hour later the livers were removed and polyA RNA was prepared. Global gene expression was determined by analysis using murine 11K GeneChips from Affymetrix. For each gene, the level of expression in animals receiving vehicle pretreatment plus PBS was defined as 1.0, with the expression levels in the mice receiving vehicle pretreatment±IL-1β or EE pretreatment±IL-1β defined relative to this. The results shown are the mean from two independent experiments.
# The fold regulation of each gene is plotted for animals receiving vehicle pretreatment x-axis) vs. animals receiving pretreatment with EE (y-axis). Genes with IL-1β induction unaffected by EE pretreatment would lie along the dotted diagonal.
# SHP = experiment: IL-1β inhibition of SHP expression in HepG2 cells (realtime PCR); assay type: cell-based, human; conditions: 100 U/ml IL-1β, 3 and 6 hours, p<0.05 vs time 0
# Procedure: Referring to FIG. 2, IL-1β inhibition of SHP expression in HepG2 cells was examined as follows. IL-1β is typically not associated with repression of gene expression. To verify a direct IL-1β mediated repression of SHP expression, HepG2 cells were treated with 100 U/ml IL-1β. Total RNA prepared at various times afterward was analyzed for SHP expression by using realtime PCR. […] This was not due to a general decrease in cell viability as SHP mRNA levels returned to baseline levels by 9 hours following IL-1β treatment.
# [1] = system: Fnk, JAB, LIX, bcl-3 and SHP; experiment: Liver expression of Fnk, JAB, LIX, bcl-3 and SHP by realtime PCR after estrogen receptor ligand pretreatment and IL-1β; conditions: mouse liver, realtime PCR
# Summary of the method: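 Mice got vehicle or EE at 100 ug/kg/day before IL-1β; in C57BL/6 wild-type, ERαKO and 129 ERβKO mice, EE at 10 ug/kg/day for 5 days preceded 1 hour IL-1β. Liver RNA from each animal was quantified by realtime PCR (mean +/−SEM), with vehicle+PBS set to 1.0.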
# [2] = HepG2, 24 hr, CDCA 1-100 uM or GW 4064 1-1000 nM
compound,measurement,setting,value
CC(C)c1onc(-c2c(Cl)cccc2Cl)c1COc1ccc(/C=C/c2cccc(C(=O)O)c2)c(Cl)c1 [GW 4064],ICAM-1 expression in vivo,ICAM-1,induces
same,ICAM-1 promoter activity,human ICAM-1 promoter,stimulated
same,EC50 observed for ICAM-induction vs cited FXR EC50,HepG2 cells; HepG2,comparable
same,ICAM-1 expression,HepG2 cells; [2],induced in a dose dependent manner
same,M-CSF expression,HepG2 cells; [2],induced in a dose dependent manner
same,SHP mRNA,"HepG2 cells; HepG2, 24 hr, positive control",induction
same,cyp7a expression,"HepG2 cells; HepG2, 24 hr, positive control",repression
"IL-1: cytokine IL-1β, injected intraperitoneally in PBS or added to HepG2 cells",IL-1 Induction A20 (Tnfaip3),mouse liver,14.0 fold
same,"IL-1 Induction B94, TNF-α induced protein 2 (Tnfaip2)",mouse liver,17.1 fold
same,IL-1 Induction C/EBPδ (Cebpd),mouse liver,7.0 fold
same,IL-1 Induction CD14 (Cd14),mouse liver,3.5 fold
same,IL-1 Induction CD83 (Cd83),mouse liver,6.2 fold
same,IL-1 Induction E-selectin (Sele),mouse liver,7.2 fold
same,IL-1 Induction Ets transcription factor ELF3 (Elf3),mouse liver,22.5 fold
same,IL-1 Induction G0/G1 switch gene 2 (G0s2),mouse liver,0.11 fold
same,IL-1 Induction GTP binding protein IRG-47 (lfi47),mouse liver,5.4 fold
same,IL-1 Induction Gadd45 (Gadd45a),mouse liver,10.9 fold
same,IL-1 Induction Glvr-1 (Slc20a1),mouse liver,3.9 fold
same,IL-1 Induction H-2Ld (H-2L),mouse liver,8.2 fold
same,IL-1 Induction ICAM-1 (lcam1),mouse liver,40.9 fold
same,IL-1 Induction IL-1m (Il1m),mouse liver,23.6 fold
same,IL-1 Induction IL-15 receptor (Il15ra),mouse liver,9.2 fold
same,IL-1 Induction IxBa (Nfkbia),mouse liver,8.7 fold
same,"IL-1 Induction JAB, suppressor of cytokine signaling 1 (Cish1)",mouse liver,7.3 fold
same,IL-1 Induction JE/MCP-1 (Scya2),mouse liver,82.3 fold
same,IL-1 Induction LIX (Scyb5),mouse liver,5.2 fold
same,IL-1 Induction LPS inducible C—C chemokine receptor related (AF030185),mouse liver,6.3 fold
same,IL-1 Induction M-CSF (Csf1),mouse liver,32.8 fold
same,IL-1 Induction MARCKS-like macrophage protein (Mlp),mouse liver,4.8 fold
same,IL-1 Induction MIG (Scyb9),mouse liver,15.0 fold
same,IL-1 Induction MIP2 (Scyb2),mouse liver,60.1 fold
same,IL-1 Induction MIP-1 gamma (Scya9),mouse liver,2.9 fold
same,IL-1 Induction MyD118 (GADD45b),mouse liver,24.3 fold
same,IL-1 Induction NF-E2 related factor 2 (NRF2) (Nfe212),mouse liver,5.2 fold
same,IL-1 Induction NF-kappa-B p105 (Nfkb1),mouse liver,13.8 fold
same,IL-1 Induction NFkB p100 (Nfkb2),mouse liver,4.0 fold
same,IL-1 Induction PAI-1 (Serpine1),mouse liver,37.6 fold
same,IL-1 Induction PDGF-induced KC (Gro1),mouse liver,7.3 fold
same,IL-1 Induction PIM-1 protein kinase (Pim1),mouse liver,2.4 fold
same,IL-1 Induction SHP (NrGb2),mouse liver,0.23 fold
same,IL-1 Induction T-cell death associated gene (Tdag),mouse liver,2.5 fold
same,IL-1 Induction T-cell specific GTPase (Tgtp),mouse liver,4.4 fold
same,IL-1 Induction TGFB inducible early growth response (Tieg),mouse liver,0.31 fold
same,IL-1 Induction Ubiquitin-conjugating E2 enzyme variant 2 (Ube2v2),mouse liver,5.0 fold
same,IL-1 Induction VCAM-1 (Vcam1),mouse liver,5.2 fold
same,"IL-1 Induction adrenergic receptor, beta 2 (Adrb2)",mouse liver,2.9 fold
same,IL-1 Induction adrenomedullin (Adm),mouse liver,11.3 fold
same,IL-1 Induction apoptosis inhibitor 1 (Birc2),mouse liver,12.2 fold
same,IL-1 Induction apoptosis inhibitor 2 (Birc3),mouse liver,9.6 fold
same,IL-1 Induction bcl-3 (Bcl3),mouse liver,11.6 fold
same,IL-1 Induction c-JUN (Jun),mouse liver,4.8 fold
same,IL-1 Induction calcium binding protein A6 (S100a6),mouse liver,2.4 fold
same,IL-1 Induction calgranulin A (S100A8),mouse liver,10.4 fold
same,IL-1 Induction calgranulin B (S100a9),mouse liver,12.5 fold
same,IL-1 Induction cytokine-inducible kinase Fnk (Cnk),mouse liver,2.9 fold
same,IL-1 Induction gly96 (ler3),mouse liver,42.1 fold
same,IL-1 Induction growth factor receptor bound protein 7 (Grb7),mouse liver,0.27 fold
same,IL-1 Induction guanylate nucleotide binding protein 2 (Gbp2),mouse liver,6.5 fold
same,IL-1 Induction helix-loop-helix factor HES-1 (Hes1),mouse liver,0.09 fold
same,IL-1 Induction heme oxygenase 1 (Hmox1),mouse liver,5.5 fold
same,IL-1 Induction hsp68 (Hsp70-3),mouse liver,6.3 fold
same,IL-1 Induction inducible 6-phosphofructo-2-kinase (AA163244),mouse liver,4.0 fold
same,IL-1 Induction inhibitor of DNA binding 3 (idb3),mouse liver,6.0 fold
same,IL-1 Induction insulin-like growth factor binding protein 1 (lgfbp1),mouse liver,4.0 fold
same,IL-1 Induction intercrine (Scya7),mouse liver,12.4 fold
same,IL-1 Induction interferon regulatory factor 1 (Irf1),mouse liver,10.5 fold
same,IL-1 Induction junB (Junb),mouse liver,2.9 fold
same,IL-1 Induction lipocalin 2 (Lcn2),mouse liver,5.5 fold
same,IL-1 Induction lkB-beta (Nfkbib),mouse liver,4.0 fold
same,IL-1 Induction m-myc (Myc),mouse liver,3.0 fold
same,IL-1 Induction macrophage interferon inducible protein 10 (Scyb10),mouse liver,50.1 fold
same,IL-1 Induction metalloproteinase-disintegrin (Adamts1),mouse liver,2.7 fold
same,IL-1 Induction molecule possessing ankyrin-repeats induced by LPS (aa614971),mouse liver,22.7 fold
same,IL-1 Induction myocyte-enriched calcineurin interactin protein (Dscrl),mouse liver,11.1 fold
same,IL-1 Induction noctumin (Ccr4),mouse liver,7.7 fold
same,IL-1 Induction p65 NF-kappa B (Rela),mouse liver,2.5 fold
same,IL-1 Induction phospholipid scramblase 1 (Plscr1),mouse liver,4.4 fold
same,IL-1 Induction protein tyrosine phosphatase 4a1 (Ptp4a1),mouse liver,2.0 fold
same,IL-1 Induction regulator for ribosome resistance homolog (Rrr),mouse liver,2.8 fold
same,IL-1 Induction relB (Relb),mouse liver,7.0 fold
same,IL-1 Induction rhoB (Arhb),mouse liver,30.0 fold
same,IL-1 Induction serum amyloid A 3 (Saa3),mouse liver,37.4 fold
same,IL-1 Induction serum amyloid A 4 (Saa4),mouse liver,2.5 fold
same,IL-1 Induction suppressor of cytokine signaling 2 (Cish2),mouse liver,2.7 fold
same,IL-1 Induction suppressor of cytokine signaling 3 (Cish3),mouse liver,13.5 fold
same,IL-1 Induction transglutaminase (Tgm2),mouse liver,2.2 fold
same,SHP expression,SHP,significantly reduced
same,IL-1 repression of SHP expression,[1]; vehicle treated or 100 ug/kg/day EE treated animals,86%
same,IL-1 induction of bcl-3,"[1]; vehicle treated or 100 ug/kg/day EE treated mice, IL-1 vs PBS",6.2 fold
